Experimental data as given in paper PMC8998611, “Identification of Novel GSK-3β Hits Using Competitive Biophysical Assays” (International Journal of Molecular Sciences, 2022).

How the values were obtained:
[1] = system: CDKs; experiment: Eurofins Kinase Diversity Panel, CDKs; format: biochemical, human; conditions: 20 µM compound; ATP at Km ± 15 µM
Description: (§1) To further characterize the inhibitory activity of the two selected fragments, the selectivity of G5 and G12 towards a panel of 58 kinases of the humane proteome was evaluated using the “Kinase screening and profiling” service of Eurofins, Luxembourg (Kinase Diversity Panel). […] Results are reported in Supplementary Figures S2 and S3.

[2] = target: T1, MEK1 (Homo sapiens, UniProt Q02750); experiment: Eurofins Kinase Diversity Panel, MEK1; format: biochemical; conditions: 20 µM compound; ATP at Km ± 15 µM
T1 construct: purchased Eurofins (Kinase Diversity Panel service)
T1 sequence (Q02750 whole entry): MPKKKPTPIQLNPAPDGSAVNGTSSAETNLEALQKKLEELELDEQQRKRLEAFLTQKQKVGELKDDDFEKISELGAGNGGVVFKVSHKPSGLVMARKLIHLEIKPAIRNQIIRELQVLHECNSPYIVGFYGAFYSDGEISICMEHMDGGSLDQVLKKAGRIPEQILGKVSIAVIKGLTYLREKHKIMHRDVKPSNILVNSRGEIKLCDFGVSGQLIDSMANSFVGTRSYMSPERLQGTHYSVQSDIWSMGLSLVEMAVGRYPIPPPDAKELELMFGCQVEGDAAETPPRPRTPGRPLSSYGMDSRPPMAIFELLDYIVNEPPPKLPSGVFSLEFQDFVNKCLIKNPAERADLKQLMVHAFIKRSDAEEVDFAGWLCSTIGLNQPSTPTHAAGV
Description: as §1

[3] = target: T2, AMPK1α (Homo sapiens, UniProt Q13131); experiment: Eurofins Kinase Diversity Panel, AMPK1α; format: biochemical; conditions: 20 µM compound; ATP at Km ± 15 µM
T2 construct: purchased Eurofins (Kinase Diversity Panel service)
T2 sequence (Q13131 whole entry): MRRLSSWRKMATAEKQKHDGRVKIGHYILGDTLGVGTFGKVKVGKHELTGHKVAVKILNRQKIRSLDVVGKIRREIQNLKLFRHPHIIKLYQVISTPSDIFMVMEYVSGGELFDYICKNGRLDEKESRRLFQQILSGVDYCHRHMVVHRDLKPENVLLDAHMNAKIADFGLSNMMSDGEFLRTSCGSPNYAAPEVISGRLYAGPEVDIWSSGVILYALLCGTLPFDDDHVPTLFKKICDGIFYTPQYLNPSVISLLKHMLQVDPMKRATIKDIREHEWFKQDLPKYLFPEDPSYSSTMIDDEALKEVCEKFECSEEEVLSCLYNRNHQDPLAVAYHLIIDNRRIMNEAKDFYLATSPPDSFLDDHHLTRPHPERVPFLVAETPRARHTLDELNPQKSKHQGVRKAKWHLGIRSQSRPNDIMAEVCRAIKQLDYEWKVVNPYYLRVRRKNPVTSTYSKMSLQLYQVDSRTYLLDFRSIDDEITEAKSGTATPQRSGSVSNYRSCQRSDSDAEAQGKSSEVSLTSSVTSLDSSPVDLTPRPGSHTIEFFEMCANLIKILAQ
T2 sequence (Q9Y478 whole entry partner): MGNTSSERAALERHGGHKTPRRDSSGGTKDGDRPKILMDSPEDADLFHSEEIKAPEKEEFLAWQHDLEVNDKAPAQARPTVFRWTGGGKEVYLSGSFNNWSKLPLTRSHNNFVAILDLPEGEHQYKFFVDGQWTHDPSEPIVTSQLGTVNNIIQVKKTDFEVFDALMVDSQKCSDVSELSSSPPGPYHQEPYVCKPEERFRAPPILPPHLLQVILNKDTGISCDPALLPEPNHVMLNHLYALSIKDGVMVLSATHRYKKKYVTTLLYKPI
T2 sequence (P54619 whole entry partner): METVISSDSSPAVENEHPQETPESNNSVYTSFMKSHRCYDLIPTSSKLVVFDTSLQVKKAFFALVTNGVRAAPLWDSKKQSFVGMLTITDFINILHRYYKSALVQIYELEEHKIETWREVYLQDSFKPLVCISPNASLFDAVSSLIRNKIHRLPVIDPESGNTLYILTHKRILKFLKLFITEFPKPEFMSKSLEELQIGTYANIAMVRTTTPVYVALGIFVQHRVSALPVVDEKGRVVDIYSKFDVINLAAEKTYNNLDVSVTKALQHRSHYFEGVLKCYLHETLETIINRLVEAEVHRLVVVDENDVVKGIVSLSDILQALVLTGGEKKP
Description: as §1

[4] = target: T3, TAK1 (Homo sapiens, UniProt O43318); experiment: Eurofins Kinase Diversity Panel, TAK1; format: biochemical; conditions: 20 µM compound; ATP at Km ± 15 µM; read-out: inhibitory effect on TAK1
T3 construct: purchased Eurofins (Kinase Diversity Panel service)
T3 sequence (O43318 1-303 limits assumed): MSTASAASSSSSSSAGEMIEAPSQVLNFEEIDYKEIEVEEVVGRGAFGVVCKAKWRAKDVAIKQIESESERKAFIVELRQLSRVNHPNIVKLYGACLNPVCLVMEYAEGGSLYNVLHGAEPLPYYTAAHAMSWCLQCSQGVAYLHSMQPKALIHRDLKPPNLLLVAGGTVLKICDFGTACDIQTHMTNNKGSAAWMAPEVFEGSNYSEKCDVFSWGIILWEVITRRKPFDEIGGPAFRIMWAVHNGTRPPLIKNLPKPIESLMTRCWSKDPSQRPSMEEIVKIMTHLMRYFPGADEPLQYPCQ
Description: as §1

SMILES	inhibitory activity on CDKs [1]	inhibitory effect on MEK1 [2]	inhibitory effect on AMPK1α [3]	inhibition at 20 µM [4] [%]
CS(=O)(=O)N1CC(c2nc(N)ncc2-c2ccc(F)cc2)C1 [G5]	did not show any evident inhibitory activity	only marginally affected	only marginally affected	–
O=C(Nc1ccccn1)C1CCN(C(=O)CCc2ccccc2F)C1 (stereo not shown) [G12]	–	–	–	20
